Test results: patent US20240239801A1, “PYRIMIDO[5,4,D]PYRIMIDINE COMPOUNDS, COMPOSITIONS COMPRISING THEM AND USES THEREOF” (Université de Montréal, priority 2021, published 2024)
Read-outs that look alike come from different tables or passages of the source.

Key:
HCT116 pERK = experiment: Phospho-ERK inhibition, AlphaLISA SureFire Ultra p-ERK 1/2; type: cell-based, human; details: for IC50: 1 h treatment; for HCT116 (Ymin %): lowest value of the pERK IC50 curve
Procedure: (§1) All cancer cell lines (A375, A101D, A2058, RKO, HT29 SK-MEL 30, IPC298, HepG2, HCT-116, Lovo, SW620, SW480, NCI-H358, NCI-H2122, Calu-6, NCIH2087, NCIH1755, NCIH1666 and Mewo) were obtained from ATCC and cultured in RPMI-1640 medium (Gibco) supplemented with 5% heat inactivated fetal bovine serum (FBS, Wisent) at 37° C. under 5% CO2. Cells were maintained in T175 flasks (Greiner). They were passaged by removing the culture medium, washing once in 10 mL of room temperature Phosphate Buffered Saline (PBS; Wisent) and incubating at 37° C. with 2 mL of 0.05% Trypsin (Thermo-Fisher). Trypsin was then inactivated by adding complete growth medium and the cells were then replated in a T175 culture dish at the appropriate dilution. All cell lines were routinely tested for mycoplasma contamination. Tissue type and mutational status of each cell line can be found in Table B.
(§2) AlphaLISA® SureFire® Ultra™ p-ERK ½ (Thr202/Tyr204) analysis was conducted on cells plated in 100 μL of complete RPMI-1640 growth medium in 96-well flat-bottomed transparent dishes (Costar) at a density indicated in Table C. Cells were maintained overnight at 37° C. under 5% CO2 before treatment with compounds' dilution series for one hour. The cell density in cells/cm^2 corresponds to cell number divided by the area of one well of a 96-well plate ([…]).
(§3) In a dilution series 100 μL/well of test substance dilution prepared in complete RPMI-1640 growth media was added to the cells. The dilution series is selected so that ten concentrations cover a range from 30 μM or 10 μM to 0.33 nM. If necessary, the initial concentration of 10 μM is increased to 100 μM or lowered to 1 μM (as in the case of A375 and NCIH1666 cells, which are generally more sensitive to the compounds) and further dilution is carried out accordingly. The final concentration of DMSO in the assay is set at 0.5%.
(§4) After treatment, media was removed, and cells were lysed in 50 μL of 1× AlphaScreen Ultra Lysis Buffer (Perkin Elmer). The AlphaLISA® SureFire® Ultra™ p-ERK ½ (Thr202/Tyr2O4) (PerkinElmer) reactions were performed with 5 μL of cell lysate according to the manufacturer's specifications in 384-well proxyplates (Perkin Elmer) followed by overnight incubation of the reactions at room temperature in a humidified chamber. After completion of the reactions, the signals were recorded on an EnVision plate reader (Perkin Elmer) using built in AlphaLISA® settings.
(§5) The effect of each compound dilution on the pERK signal was expressed in % inhibition and calculated as follows. An internal 100% inhibition control (1 μM trametinib, cat. No. HY-10999; MedChem Express; CAS No. 871700-17-3) was included in each plate and used as a measure of pERK background. First, the value obtained for trametinib was subtracted from each data point. The average of DMSO (vehicle) controls (set as 0% inhibition) was established and used to calculate % inhibition:
(§6) The ability of each compound to inhibit pERK signal was expressed as an IC50 value obtained by plotting the inhibition values for each data point of a dilution series and fitting the obtained curves using a log(agonist) versus response−variable slope (four parameters) function using GraphPadPrism (V7.0).
(§7) When present, paradoxical pERK induction is inferred from the negative % inhibition values observed in the pERK IC50 curves of a compound.

SW480 pERK = experiment: as above; type: cell-based, human; details: for IC50: 1 h treatment; for SW480 (Ymin %): lowest value of the pERK IC50 curve
Procedure: as §1, §2, §3, §4, §5, §6, §7

[1] = Table 2, read-out: SW480 PERK IC50 (UM)
[2] = Table 3, read-out: SW480 PERK IC50

Row | SMILES | IC50 (HCT116 pERK; Table 2) | HCT116 (Ymin %) (HCT116 pERK; Table 2) | IC50 (SW480 pERK; [1]) | SW480 (Ymin %) (SW480 pERK; Table 2) | IC50 (HCT116 pERK; Table 3) | HCT116 (Ymin %) (HCT116 pERK; Table 3) | IC50 (SW480 pERK; [2]) | SW480 (Ymin %) (SW480 pERK; Table 3)
1 | COc1ccc(S(=O)(=O)Nc2ccc(F)c(Nc3ncnc4cnc(SC)nc34)c2F)cc1OC [Example 2] | 1 to 10 µM | −14% | 1 to 10 µM | 5% |  |  |  | 
2 | COC(=O)c1sccc1S(=O)(=O)Nc1ccc(F)c(Nc2ncnc3cnc(SC)nc23)c1F [Example 3] | 1 to 10 µM | −7% | 1 to 10 µM | 9% |  |  |  | 
3 | CSc1ncc2ncnc(Nc3c(F)ccc(NS(=O)(=O)c4ccc5c(c4)CCO5)c3F)c2n1 [Example 4] | 1 to 10 µM | −5% | 1 to 10 µM | −2% |  |  |  | 
4 | CSc1ncc2ncnc(Nc3c(F)ccc(NS(=O)(=O)c4ccccc4C#N)c3F)c2n1 [Example 5] | 10 to 30 µM | 8% | 1 to 10 µM | 8% |  |  |  | 
5 | CSc1ncc2ncnc(Nc3c(F)ccc(NS(=O)(=O)c4ccc5c(c4)OCO5)c3F)c2n1 [Example 6] | 10 to 30 µM | −10% | 1 to 10 µM | 1% |  |  |  | 
6 | COc1ccc(S(=O)(=O)Nc2ccc(F)c(Nc3ncnc4cnc(SC)nc34)c2F)c(C#N)c1 [Example 7] | 10 to 30 µM | 7% | 1 to 10 µM | 17% |  |  |  | 
7 | COc1ccc(S(=O)(=O)Nc2ccc(F)c(Nc3ncnc4cnc(SC)nc34)c2F)c(F)c1 [Example 8] | 1 to 10 µM | −3% | 1 to 10 µM | 15% |  |  |  | 
8 | CSc1ncc2ncnc(Nc3c(F)ccc(NS(=O)(=O)c4ccc(F)cc4C#N)c3F)c2n1 [Example 10] | 10 to 30 µM | 9% | 1 to 10 µM | −9% |  |  |  | 
9 | COc1ccc(S(=O)(=O)Nc2ccc(F)c(Nc3ncnc4cnc(SC)nc34)c2F)c(C)c1 [Example 12] | 1 to 10 µM | −7% | 1 to 10 µM | −10% |  |  |  | 
10 | COc1ccc(S(=O)(=O)Nc2ccc(F)c(Nc3ncnc4cnc(SC)nc34)c2F)c(C(F)(F)F)c1 [Example 14] | 1 to 10 µM | −5% | 1 to 10 µM | −6% |  |  |  | 
11 | CSc1ncc2ncnc(Nc3c(F)ccc(NS(=O)(=O)c4ccc(Cl)cc4Cl)c3F)c2n1 [Example 15] | 10 to 30 µM | −3% | 10 to 30 µM | 0% |  |  |  | 
12 | CSc1ncc2ncnc(Nc3c(F)ccc(NS(=O)(=O)c4ccc(Br)cc4F)c3F)c2n1 [Example 16] | 10 to 30 µM | 1% | 1 to 10 µM | 3% |  |  |  | 
13 | CSc1ncc2ncnc(Nc3c(F)ccc(NS(=O)(=O)c4ccc(Br)cc4C)c3F)c2n1 [Example 17] | 10 to 30 µM | 5% | 1 to 10 µM | 3% |  |  |  | 
14 | CSc1ncc2ncnc(Nc3c(F)ccc(NS(=O)(=O)c4ccc(C)cc4)c3F)c2n1 [Example 18] | 10 to 30 µM | 4% | 1 to 10 µM | 11% |  |  |  | 
15 | COc1ccc(S(=O)(=O)Nc2ccc(F)c(Nc3ncnc4cnc(SC)nc34)c2F)c(OC)c1 [Example 19] | 10 to 30 µM | −4% | 1 to 10 µM | 4% |  |  |  | 
16 | CSc1ncc2ncnc(Nc3c(F)ccc(NS(=O)(=O)c4ccccc4C)c3F)c2n1 [Example 20] | 1 to 10 µM | 7% | 1 to 10 µM | 12% |  |  |  | 
17 | CSc1ncc2ncnc(Nc3c(F)ccc(NS(=O)(=O)c4ccccc4Cl)c3F)c2n1 [Example 21] | 1 to 10 µM | 2% | 1 to 10 µM | 9% |  |  |  | 
18 | CSc1ncc2ncnc(Nc3c(F)ccc(NS(=O)(=O)c4ccc(Cl)cc4C)c3F)c2n1 [Example 22] | 1 to 10 µM | −1% | 1 to 10 µM | −5% |  |  |  | 

Row | SMILES | IC50 (HCT116 pERK; Table 2) | HCT116 (Ymin %) (HCT116 pERK; Table 2) | IC50 (SW480 pERK; [1]) | SW480 (Ymin %) (SW480 pERK; Table 2) | IC50 (HCT116 pERK; Table 3) | HCT116 (Ymin %) (HCT116 pERK; Table 3) | IC50 (SW480 pERK; [2]) | SW480 (Ymin %) (SW480 pERK; Table 3)
19 | CSc1ncc2ncnc(Nc3c(F)ccc(NS(=O)(=O)c4ccc(C)cc4C)c3F)c2n1 [Example 23] | 1 to 10 µM | 0% | 1 to 10 µM | −7% |  |  |  | 
20 | CSc1ncc2ncnc(Nc3c(F)ccc(NS(=O)(=O)N4CCCC4)c3F)c2n1 [Example 24] | 10 to 30 µM | 10% | 1 to 10 µM | 13% |  |  |  | 
21 | COC1CN(S(=O)(=O)Nc2ccc(F)c(Nc3ncnc4cnc(SC)nc34)c2F)C1 [Example 25] | 10 to 30 µM | 7% | 10 to 30 µM | −6% |  |  |  | 
22 | CSc1ncc2ncnc(Nc3c(F)ccc(NS(=O)(=O)N4CCC(F)(F)C4)c3F)c2n1 [Example 27] | 10 to 30 µM | −6% |  |  |  |  |  | 
23 | COc1ccc(S(=O)(=O)Nc2ccc(F)c(Nc3ncnc4cnc(-n5cnc(C)c5)nc34)c2F)cc1OC [Example 30] |  |  |  |  | 1 to 10 µM | −6% | 10 to 30 µM | −5%
24 | COc1ccc(S(=O)(=O)Nc2ccc(F)c(Nc3ncnc4cnc(N5CC[C@H](F)C5)nc34)c2F)cc1 [Example 31] |  |  |  |  | 1 to 10 µM | 13% | 1 to 10 µM | 11%
25 | COc1ccc(S(=O)(=O)Nc2ccc(F)c(Nc3ncnc4cnc(-n5ccnc5C)nc34)c2F)cc1 [Example 32] |  |  |  |  | 10 to 30 µM | 1% | 1 to 10 µM | 8%
26 | N#Cc1ccccc1S(=O)(=O)Nc1ccc(F)c(Nc2ncnc3cnc(N4CC[C@H](F)C4)nc23)c1F [Example 33] |  |  |  |  | 10 to 30 µM | −4% | 1 to 10 µM | 13%
27 | Cc1ncn(-c2ncc3ncnc(Nc4c(F)ccc(NS(=O)(=O)c5ccccc5C#N)c4F)c3n2)c1C [Example 34] |  |  |  |  | 10 to 30 µM | −3% | 1 to 10 µM | −2.0%
28 | COc1ccc(S(=O)(=O)Nc2ccc(F)c(Nc3ncnc4cnc(-n5ccnc5)nc34)c2F)cc1 [Example 35] |  |  |  |  | 10 to 30 µM | −4% | 1 to 10 µM | 14%
29 | COc1ccc(S(=O)(=O)Nc2ccc(F)c(Nc3ncnc4cnc(-n5cnc6ccccc65)nc34)c2F)cc1 [Example 36] |  |  |  |  | 1 to 10 µM | 10% | 1 to 10 µM | 10%
30 | COc1ccc(S(=O)(=O)Nc2ccc(F)c(Nc3ncnc4cnc(-n5cc(C)nc5C)nc34)c2F)cc1 [Example 37] |  |  |  |  | 1 to 10 µM | −5% | 1 to 10 µM | −6%
31 | COc1ccc(S(=O)(=O)Nc2ccc(F)c(Nc3ncnc4cnc(N5CC[C@@H](F)C5)nc34)c2F)cc1 [Example 38] |  |  |  |  | 10 to 30 µM | −1% | 10 to 30 µM | −3%
32 | COc1ccc(S(=O)(=O)Nc2ccc(F)c(Nc3ncnc4cnc(N5CCC(F)(F)C5)nc34)c2F)cc1 [Example 39] |  |  |  |  | 10 to 30 µM | 5% | 10 to 30 µM | −3%
33 | COc1ccc(S(=O)(=O)Nc2ccc(F)c(Nc3ncnc4cnc(-n5cnc(C)c5C)nc34)c2F)cc1 [Example 40] |  |  |  |  | 1 to 10 µM | 12% | 1 to 10 µM | −7%
34 | COc1ccc(S(=O)(=O)Nc2ccc(F)c(Nc3ncnc4cnc(N5CCC(O)C5)nc34)c2F)cc1 (stereo not drawn) [Example 41] |  |  |  |  | 10 to 30 µM | 13% | 10 to 30 µM | 6%
35 | COc1ccc(S(=O)(=O)Nc2ccc(F)c(Nc3ncnc4cnc(N5CCC(O)C5)nc34)c2F)cc1 (stereo not drawn) [Example 42] |  |  |  |  | 10 to 30 µM | −2% | 10 to 30 µM | 11%
